Publication PMC9813914, “Structural Basis for a Cork-Up Mechanism of the Intra-Molecular Mesaconyl-CoA Transferase” (Biochemistry, 2022)

Target: T1, Mct (mesaconyl-CoA transferase; mesaconyl-C1:C4-CoA CoA transferase) (Chloroflexus aurantiacus, UniProt A9WC36)
T1 construct: intertwined homodimer
T1 sequence (A9WC36 1-409): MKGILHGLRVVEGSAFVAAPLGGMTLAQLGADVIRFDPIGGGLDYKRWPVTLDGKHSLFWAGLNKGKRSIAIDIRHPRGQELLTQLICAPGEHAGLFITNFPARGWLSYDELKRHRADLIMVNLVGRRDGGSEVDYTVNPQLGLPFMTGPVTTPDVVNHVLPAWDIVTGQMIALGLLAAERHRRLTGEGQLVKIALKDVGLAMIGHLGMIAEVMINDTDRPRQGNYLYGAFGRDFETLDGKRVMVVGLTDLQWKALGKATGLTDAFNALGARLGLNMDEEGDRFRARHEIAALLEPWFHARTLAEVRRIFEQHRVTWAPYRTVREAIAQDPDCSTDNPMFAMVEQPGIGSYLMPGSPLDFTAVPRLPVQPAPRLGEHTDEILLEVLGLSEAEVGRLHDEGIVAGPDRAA
Experiment: HPLC-MS of succinyl-CoA formation
Assay type: biochemical
Conditions: alternative CoA acceptor (side activity); co-substrate 1 mM mesaconyl-C4-CoA; 200 mM HEPES/KOH pH 8.0, 55 °C, 6 μM Mct; read-out: apparent KM

O=C(O)CCC(=O)O [succinate]
Km: > 25 mM
